# Tests used:
# Candida albicans = assay: Antifungal activity of herbal black dye (disc, inhibition zone); type: cell-based; settings: 25 mg/disc
# Aspergillus niger = assay: as above; type: cell-based; settings: 25 mg/disc
smiles,measurement,setting,value
COC1=CC(=O)C[C@@H](C)[C@]12Oc1c(Cl)c(OC)cc(OC)c1C2=O [Griseofulvin],inhibition zone,Candida albicans,8 mm
same,inhibition zone,Aspergillus niger,10 mm

# — patent publication US20060143838A1, “Herbal dye and process of preparation thereof” (COUNCIL OF SCIENTIFIC & INDUSTRIAL RESEARCH, priority 2004, published 2006)
